Where “and” joins values, the source holds several entries; their conditions need not be identical. Identical values can stand only once.

By Ki is commonly meant a measure of affinity in units of concentration, obtained from inhibition or displacement.

For test [1], the target named is GRPR (Homo sapiens, UniProt P30550). Briefly: Fluorometric calcium release assay. The test is classed as cell-based. Conditions: PC-3 cells, 50 nM.
For test [2], the target named is GRPR. The conditions noted are these: read-out: Ki (reported value); murine Swiss 3T3 cells; cited from earlier work.

GRPR (Homo sapiens, UniProt P30550), sequence (P30550 whole entry): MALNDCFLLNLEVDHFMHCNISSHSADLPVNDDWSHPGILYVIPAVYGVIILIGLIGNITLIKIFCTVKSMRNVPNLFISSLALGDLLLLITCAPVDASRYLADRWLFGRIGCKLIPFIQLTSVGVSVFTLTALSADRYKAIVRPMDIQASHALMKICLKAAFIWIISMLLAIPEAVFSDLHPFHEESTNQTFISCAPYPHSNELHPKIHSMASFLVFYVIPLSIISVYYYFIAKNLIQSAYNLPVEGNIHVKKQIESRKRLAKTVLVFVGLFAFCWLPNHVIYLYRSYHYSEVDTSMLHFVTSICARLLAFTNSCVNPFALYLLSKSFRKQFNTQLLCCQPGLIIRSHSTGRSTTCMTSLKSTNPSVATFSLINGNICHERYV

For the compound `Nc1ncnc2c1ncn2[C@@H]1O[C@H](COP(=O)(O)OP(=O)(O)OP(=O)(O)O)[C@@H](O)[C@H]1O` [ATP, adenosine triphosphate], the Intracellular calcium release at GRPR [1] is 511 ± 45.5 RFUs and > 500 RFUs.
With “D-Phe-Gln-Trp-Ala-Val-Gly-His-Leu-ψ-Tac-NH2 [RC-3950-II]”, at GRPR [2], the Ki is 0.078 nM.

The record behind these values is PMC6372246 (ACS Omega, 2019).
